The results in this text go back to patent US20040106626A1, “6-Membered unsaturated heterocyclic compounds useful for selective inhibition of the coagulation cascade” (Pharmacia Corporation, priority 2001, published 2004).

Common to all, as to assay type: biochemical
The subject of assay [1] is Normal human pooled plasma. The assay can be described thus: Prothrombin time (PT) clotting assay. The settings on record: concentration at which prothrombin time is prolonged by 2x normal, reported as less than or greater than 50 uM. A digest of the protocol: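 Normal human pooled plasma incubated with 100 uM compound or saline, then thromboplastin (human tissue factor) added and clotting time recorded in a coagulation machine. Compounds exceeding 3× normal PT (11.0 s) are titrated to find the concentration doubling PT.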

The target of assay [2] is T1, Human factor Xa (Homo sapiens, UniProt P00742).
T1 construct: purchased Enzyme Research Laboratories, South Bend Ind
Description: Xa assay (chromogenic substrate S-2765). The settings on record: reported only as less than or greater than 30 uM; read-out: Factor Xa (II) IC50. A digest of the protocol: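 Chromogenic readout: S-2765 hydrolysis (0.15 mM) by 0.3 nM human FXa was monitored at 405 nm after 60 min at room temperature, with a time-zero background read. Buffer: 50 mM Tris-HCl, pH 8.0, 100 mM NaCl, 0.1% BSA. Inhibition is relative to buffer-only controls.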

The target in assay [3] is T2, Human thrombin (Homo sapiens, UniProt P00734).
T2 construct: converts prothrombin (II) to thrombin (IIa); purchased Calbiochem, La Jolla, Calif
Description: Thrombin assay (chromogenic substrate). To be noted: reported only as less than or greater than 30 uM; read-out: Thrombin (II) IC50. The gist of the method: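 Percent inhibition derived by comparing OD405 nm of compound-treated and control samples. Thrombin cleavage of a p-nitroanilide chromogenic substrate provides the signal.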

In assay [4] the target is T3, recombinant soluble tissue factor and recombinant human factor VIIa (TF-VIIa) (Homo sapiens, UniProt P08709).
T3 construct: conversion of coagulation factor VII to VIIa by factor Xa; purchased American Diagnostica, Greenwich CT; host or cells: soluble TF made in house in E. coli
Description: TF-VIIa assay (chromogenic substrate hydrolysis). The settings on record: reported only as less than or greater than 0.1 uM. A digest of the protocol:
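Chromogenic read at OD405, compared with control for percent inhibition. Substrate N-methylsulfonyl-D-phe-gly-arg-p-nitroaniline at 0.4 mM is cleaved by recombinant human VIIa (2 nM) complexed with soluble TF (100 nM). Buffer: pH 8.0 Tris-HCl 50 mM, CaCl2 5 mM, NaCl 100 mM, BSA 0.1%.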

T3 sequence (P08709 213-466 limits assumed): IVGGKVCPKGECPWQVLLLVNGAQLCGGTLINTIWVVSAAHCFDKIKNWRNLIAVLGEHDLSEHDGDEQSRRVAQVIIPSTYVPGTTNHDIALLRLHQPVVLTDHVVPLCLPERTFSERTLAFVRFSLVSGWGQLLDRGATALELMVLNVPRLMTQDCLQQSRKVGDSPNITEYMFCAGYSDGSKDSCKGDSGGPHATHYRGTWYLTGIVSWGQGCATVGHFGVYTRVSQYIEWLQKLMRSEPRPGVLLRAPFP
T3 sequence (P08709 61-212 limits assumed): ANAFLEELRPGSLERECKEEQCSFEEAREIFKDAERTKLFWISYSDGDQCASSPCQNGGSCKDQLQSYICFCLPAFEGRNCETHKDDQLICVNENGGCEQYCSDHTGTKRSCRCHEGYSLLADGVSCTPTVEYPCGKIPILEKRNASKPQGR
T3 sequence (P13726 33-251 partner limits assumed): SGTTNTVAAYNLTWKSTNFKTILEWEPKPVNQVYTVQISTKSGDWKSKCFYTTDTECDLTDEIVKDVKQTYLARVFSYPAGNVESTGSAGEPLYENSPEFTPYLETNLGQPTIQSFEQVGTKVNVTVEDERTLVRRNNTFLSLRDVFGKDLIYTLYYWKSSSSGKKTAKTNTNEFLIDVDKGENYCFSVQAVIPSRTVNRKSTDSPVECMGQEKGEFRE
T1 sequence (P00742 235-488 limits assumed): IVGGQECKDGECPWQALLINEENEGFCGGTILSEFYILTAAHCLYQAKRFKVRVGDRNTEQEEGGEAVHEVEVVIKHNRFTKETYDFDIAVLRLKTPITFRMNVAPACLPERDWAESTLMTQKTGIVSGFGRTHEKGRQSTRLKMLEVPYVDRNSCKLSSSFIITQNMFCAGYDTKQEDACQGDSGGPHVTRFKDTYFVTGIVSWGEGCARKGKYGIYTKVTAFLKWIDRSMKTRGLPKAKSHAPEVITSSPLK
T1 sequence (P00742 41-179 limits assumed): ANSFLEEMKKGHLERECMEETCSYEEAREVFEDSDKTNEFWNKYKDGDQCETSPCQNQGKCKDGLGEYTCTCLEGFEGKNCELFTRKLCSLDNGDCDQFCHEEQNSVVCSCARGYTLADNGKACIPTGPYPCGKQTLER

Consider `CC[C@H](C)NC(=O)c1cc(N)cc(-c2cnc(N[C@H](C)C(C)C)c(=O)n2CC(=O)NCc2ccc(C(=N)N)cc2)c1.O=C(O)C(F)(F)F.O=C(O)C(F)(F)F` [Example 202], for which the “PT (Prothrombin time) 2xPT” value in assay [1] was under 50.0 µM. For the same compound, the IC50 (in general, the concentration that gives 50% inhibition) was over 30 µM in assay [2], under 30 µM in assay [3] and under 100 nM in assay [4].

Turning to `CC[C@@H](C)Nc1ncc(-c2cc(N)cc(C(=O)N[C@@H](C)CC)c2)n(CC(=O)NCc2ccc(C(=N)N)cc2)c1=O.O=C(O)C(F)(F)F.O=C(O)C(F)(F)F` [Example 203], in assay [1], the “PT (Prothrombin time) 2xPT” value was under 50.0 µM. The IC50 in assay [2] was over 30 µM; in assay [3], under 30 µM; in assay [4], under 100 nM.

As to `N=C(N)c1ccc(CNC(=O)Cn2c(-c3cc(N)cc(C(=O)O)c3)cnc(NC3CC3)c2=O)cc1.O=C(O)C(F)(F)F` [Example 204, 3-amino-5-[1-[2-({4-[amino(imino)methyl]benzyl}amino)-2-oxoethyl]-5-(cyclopropylamino)-6-oxo-1,6-dihydropyrazin-2-yl]benzoic Acid], the “PT (Prothrombin time) 2xPT” value in assay [1] is under 50.0 µM. The IC50 in assay [2] is over 30 µM; in assay [3] it was over 30 µM; in assay [4], under 100 nM.

As for `CCOC(=O)c1cc(N)cc(-c2cnc(NC3CC3)c(=O)n2CC(=O)NCc2ccc(C(=N)N)cc2)c1.O=C(O)C(F)(F)F` [Example 207, Ethyl 3-amino-5-[1-[2-({4-[amino(imino)methyl]benzyl}amino)-2-oxoethyl]-5-(cyclopropylamino)-6-oxo-1,6-dihydropyrazin-2-yl]benzoate], the “PT (Prothrombin time) 2xPT” value in assay [1] was under 50.0 µM. The concentration for half-maximal inhibition (IC50) was over 30 µM in assay [2], over 30 µM in assay [3] and under 100 nM in assay [4].

Consider `CCC(CC)COc1cc(N)cc(-c2cnc(NC(C)C)c(=O)n2CC(=O)NCc2ccc(C(=N)N)cc2)c1.O=C(O)C(F)(F)F.O=C(O)C(F)(F)F` [Example 209], for which the “PT (Prothrombin time) 2xPT” value in assay [1] was 50 µM. The half-inhibitory concentration (IC50) in assay [2] is over 30 µM; in assay [3] it was over 30 µM; in assay [4] it was under 100 nM.

For the compound `CC(C)Nc1ncc(-c2cc(N)cc(OCCc3ccccc3)c2)n(CC(=O)NCc2ccc(C(=N)N)cc2)c1=O.O=C(O)C(F)(F)F.O=C(O)C(F)(F)F` [Example 211], in assay [1], the “PT (Prothrombin time) 2xPT” value was under 50.0 µM. Further, the half-inhibitory concentration (IC50) in assay [2] is over 30 µM; in assay [3], over 30 µM; in assay [4], under 100 nM.

Take `CC(C)Nc1ncc(-c2cc(N)cc(OC3CCCC3)c2)n(CC(=O)NCc2ccc(C(=N)N)cc2)c1=O.O=C(O)C(F)(F)F.O=C(O)C(F)(F)F` [Example 212]: the “PT (Prothrombin time) 2xPT” value in assay [1] is under 50.0 µM. The IC50 in assay [2] was over 30 µM; in assay [3] it was over 30 µM; in assay [4], under 100 nM.

In the case of `CC(C)Nc1ncc(-c2cc(N)cc(OCC(C)(C)N(C)C)c2)n(CC(=O)NCc2ccc(C(=N)N)cc2)c1=O.O=C(O)C(F)(F)F.O=C(O)C(F)(F)F` [Example 213], the “PT (Prothrombin time) 2xPT” value in assay [1] is under 50.0 µM. Besides, the IC50 was over 30 µM in assay [2], over 30 µM in assay [3] and under 100 nM in assay [4].

Regarding `CC(C)CCOc1cc(N)cc(-c2cnc(NC(C)C)c(=O)n2CC(=O)NCc2ccc(C(=N)N)cc2)c1.O=C(O)C(F)(F)F.O=C(O)C(F)(F)F` [Example 214], the “PT (Prothrombin time) 2xPT” value in assay [1] was under 50.0 µM. The IC50 is over 30 µM in assay [2], over 30 µM in assay [3] and under 100 nM in assay [4].

For the compound `CC(C)Nc1ncc(-c2cc(N)cc(OCCC(C)(C)C)c2)n(CC(=O)NCc2ccc(C(=N)N)cc2)c1=O.O=C(O)C(F)(F)F.O=C(O)C(F)(F)F` [Example 215], the “PT (Prothrombin time) 2xPT” value in assay [1] was under 50.0 µM. For the same compound, the figures for the concentration for half-maximal inhibition (IC50) in assay [2], in assay [3] and in assay [4] were over 30 µM, over 30 µM and under 100 nM, respectively.

On to `CC(C)Nc1ncc(-c2cc(N)cc(OC(C)C)c2)n(CC(=O)NCc2ccc(C(=N)N)cc2)c1=O.O=C(O)C(F)(F)F.O=C(O)C(F)(F)F` [Example 216], for which the “PT (Prothrombin time) 2xPT” value in assay [1] is under 50.0 µM. Moreover, the half-inhibitory concentration (IC50) in assay [2] is over 30 µM; in assay [3], over 30 µM; in assay [4], under 100 nM.

Consider `CC(C)Nc1ncc(-c2cc(N)cc(OCC(C)(C)CN(C)C)c2)n(CC(=O)NCc2ccc(C(=N)N)cc2)c1=O.O=C(O)C(F)(F)F.O=C(O)C(F)(F)F` [Example 217], for which the “PT (Prothrombin time) 2xPT” value in assay [1] was under 50.0 µM. In addition, the half-inhibitory concentration (IC50) is over 30 µM in assay [2], under 30 µM in assay [3] and under 100 nM in assay [4].

Turning to `CC(C)Nc1ncc(-c2cc(N)cc(OC3Cc4ccccc4C3)c2)n(CC(=O)NCc2ccc(C(=N)N)cc2)c1=O.O=C(O)C(F)(F)F.O=C(O)C(F)(F)F` [Example 218], the “PT (Prothrombin time) 2xPT” value in assay [1] is under 50.0 µM. Moreover, the IC50 is over 30 µM in assay [2], over 30 µM in assay [3] and under 100 nM in assay [4].

Consider `COCCOc1cc(N)cc(-c2cnc(NC(C)C)c(=O)n2CC(=O)NCc2ccc(C(=N)N)cc2)c1.O=C(O)C(F)(F)F.O=C(O)C(F)(F)F` [Example 219], for which the “PT (Prothrombin time) 2xPT” value in assay [1] is under 50.0 µM. In addition, the concentration for half-maximal inhibition (IC50) in assay [2] was over 30 µM; in assay [3], over 30 µM; in assay [4], under 100 nM.

As to `CC(C)Nc1ncc(-c2cc(N)cc(OCC3CCCC3)c2)n(CC(=O)NCc2ccc(C(=N)N)cc2)c1=O.O=C(O)C(F)(F)F.O=C(O)C(F)(F)F` [Example 220], the “PT (Prothrombin time) 2xPT” value in assay [1] is under 50.0 µM. The half-inhibitory concentration (IC50) in assay [2] is over 30 µM; in assay [3], over 30 µM; in assay [4] it was under 100 nM.

With `CC(C)Nc1ncc(-c2cc(N)cc(OCC3CCCCC3)c2)n(CC(=O)NCc2ccc(C(=N)N)cc2)c1=O.O=C(O)C(F)(F)F.O=C(O)C(F)(F)F` [Example 221], the “PT (Prothrombin time) 2xPT” value in assay [1] is over 50.0 µM. In addition, the IC50 in assay [2] is over 30 µM; in assay [3] it was over 30 µM; in assay [4], under 100 nM.

For the compound `CCCCOc1cc(N)cc(-c2cnc(NC(C)C)c(=O)n2CC(=O)NCc2ccc(C(=N)N)cc2)c1.O=C(O)C(F)(F)F.O=C(O)C(F)(F)F` [Example 222], the “PT (Prothrombin time) 2xPT” value in assay [1] was under 50.0 µM. The half-maximal inhibitory concentration (IC50) was over 30 µM in assay [2], over 30 µM in assay [3] and under 100 nM in assay [4].

Take `CC(C)Nc1ncc(-c2cc(N)cc(OCC3CC3)c2)n(CC(=O)NCc2ccc(C(=N)N)cc2)c1=O.O=C(O)C(F)(F)F.O=C(O)C(F)(F)F` [Example 223]: the “PT (Prothrombin time) 2xPT” value in assay [1] is under 50.0 µM. Besides, the IC50 in assay [2] is over 30 µM; in assay [3], over 30 µM; in assay [4], under 100 nM.

As to `CCC(C)Oc1cc(N)cc(-c2cnc(NC(C)C)c(=O)n2CC(=O)NCc2ccc(C(=N)N)cc2)c1.O=C(O)C(F)(F)F.O=C(O)C(F)(F)F` (stereo not drawn) [Example 224], the “PT (Prothrombin time) 2xPT” value in assay [1] was under 50.0 µM. In addition, the IC50 is over 30 µM in assay [2], over 30 µM in assay [3] and under 100 nM in assay [4].

Take `CC(C)Nc1ncc(-c2cc(N)cc(OC3CCCCC3)c2)n(CC(=O)NCc2ccc(C(=N)N)cc2)c1=O.O=C(O)C(F)(F)F.O=C(O)C(F)(F)F` [Example 225]: the “PT (Prothrombin time) 2xPT” value in assay [1] was over 50.0 µM. Besides, the IC50 is over 30 µM in assay [2], over 30 µM in assay [3] and under 100 nM in assay [4].

As to `CC(C)Nc1ncc(-c2cc(N)cc(-c3nnn[nH]3)c2)n(CC(=O)NCc2ccc(C(=N)N)cc2)c1=O.O=C(O)C(F)(F)F` [Example 227, N-{4-[amino(imino)methyl]benzyl}-2-[6-[3-amino-5-(1H-tetraazol-5-yl)phenyl]-3-(isopropylamino)-2-oxopyrazin-1 (2H)-yl]acetamide], the “PT (Prothrombin time) 2xPT” value in assay [1] is under 50.0 µM. The results for the IC50 in assay [2], in assay [3] and in assay [4] were over 30 µM, over 30 µM and under 100 nM, respectively.

For `CC(C)Nc1ncc(-c2cc(N)cc(S(=O)(=O)CC(C)(C)C)c2)n(CC(=O)NCc2ccc(C(=N)N)cc2)c1=O.O=C(O)C(F)(F)F.O=C(O)C(F)(F)F` [Example 228], the “PT (Prothrombin time) 2xPT” value in assay [1] was under 50.0 µM. The IC50 in assay [2] is over 30 µM; in assay [3] it was over 30 µM; in assay [4] it was under 100 nM.

`CCC(CC)CS(=O)(=O)c1cc(N)cc(-c2cnc(NC(C)C)c(=O)n2CC(=O)NCc2ccc(C(=N)N)cc2)c1.O=C(O)C(F)(F)F.O=C(O)C(F)(F)F` [Example 229]: the “PT (Prothrombin time) 2xPT” value in assay [1] was under 50.0 µM. Moreover, the IC50 in assay [2] was over 30 µM; in assay [3], over 30 µM; in assay [4], under 100 nM.

As to `CCCCS(=O)(=O)c1cc(N)cc(-c2cnc(NC(C)C)c(=O)n2CC(=O)NCc2ccc(C(=N)N)cc2)c1.O=C(O)C(F)(F)F.O=C(O)C(F)(F)F` [Example 230], the “PT (Prothrombin time) 2xPT” value in assay [1] was under 50.0 µM. Further, the IC50 in assay [2] is over 30 µM; in assay [3] it was over 30 µM; in assay [4] it was under 100 nM.
